Source: patent publication US10533161B2, “NADPH oxidase proteins” (Universite Grenoble Alpes, priority 2014, dated 2020)
Entries after “also recorded” stand apart in the source; their conditions may differ.

Legend:
eukaryotic NOX = details: commercial molecules targeting the eukaryotic NOX; cited from earlier work
SpNox = test: NADPH oxidase activity of SpNox by colorimetry (NBT reduction, 96-well plate); format: biochemical, Streptococcus pneumoniae; details: absorbance at 560 nm, 5 concentrations 0.01-100 μM (DPI 0.005-50 μM), triplicate
Description: The oxidase activity is determined by measuring the kinetics of reduction of NBT by the O2.^− ions, by monitoring the increase in absorbance at 560 nm (molar extinction coefficient of NBT: ε560=30 000 mM^−1.cm^−1). It is also possible to use a wavelength of 550 nm SpNox is incubated with a reaction mixture containing the molecule to be tested, NBT, FAD and the protein storage buffer for 5 to 20 min at 25° C. The reaction is then started by adding NADPH.
The NADPH oxidase activity is then quantified at the end point by determining the intensity of the coloration compared to a positive control. The positive control is carried out with the SpNox protein alone, without the molecule to be tested.
The compounds present in each well of the plate are, as final concentration: • 0.1 μg of SpNox; • 2 μM of FAD; • 125 μM of NBT; • 150 μM NADPH; • Molecule A; • SpNox storage buffer q.s. 200 μL.
All the experiments were carried out in triplicate and each molecule was tested at 5 different concentrations. The concentration range is deliberately wide so as to be able to include the possible IC50 values of each molecule. The concentrations selected are: 0.01-0.1-1-10-100 μM.

## Oc1cc(O)c2c(c1)O[C@H](c1ccc(O)c(O)c1)[C@@H](O)C2 [Catechin]
Eukaryotic NOX
  Property (NADPH oxidase activity of the eukaryotic NOX): Inhibitor
SpNox
  Effect on the NADPH oxidase activity of SpNox: inhibitors of SpNox

## c1ccc2c(c1)[IH]c1ccccc1-2 [DPI, diphenyleneiodonium chloride]
Eukaryotic NOX
  Property (NADPH oxidase activity of the eukaryotic NOX): Inhibitor
SpNox
  Effect on the NADPH oxidase activity of SpNox: inhibits the reaction; also recorded: inhibitory effect; also recorded: inhibitors of SpNox

## Cc1ccccc1-n1sc2cc(F)ccc2c1=O [Thr101]
Eukaryotic NOX
  Property (NADPH oxidase activity of the eukaryotic NOX): Inhibitor
SpNox
  Effect on the NADPH oxidase activity of SpNox: inhibitors of SpNox

## CCCCC/C=C\C/C=C\C/C=C\C/C=C\CCCC(=O)O [Arachidonic acid (AA), Arachidonic acid]
Eukaryotic NOX
  Property (NADPH oxidase activity of the eukaryotic NOX): Activator
SpNox
  Effect on the NADPH oxidase activity of SpNox: stimulates the production of superoxide; also recorded: activator of SpNox

## O=C(O[C@@H]1Cc2c(O)cc(O)cc2O[C@@H]1c1ccc(O)c(O)c1)c1cc(O)c(O)c(O)c1 [Epicatechin gallate]
Eukaryotic NOX
  Property (NADPH oxidase activity of the eukaryotic NOX): Inhibitor
SpNox
  Effect on the NADPH oxidase activity of SpNox: inhibitors of SpNox

## O=c1c2ccccc2[se]n1-c1ccccc1 [Ebselen]
Eukaryotic NOX
  Property (NADPH oxidase activity of the eukaryotic NOX): Inhibitor
SpNox
  Effect on the NADPH oxidase activity of SpNox: inhibitors of SpNox

## CC1=C(O)C(=O)C=C2C1=CC=C1[C@@]2(C)CC[C@@]2(C)[C@@H]3C[C@](C)(C(=O)O)CC[C@]3(C)CC[C@]12C [Celastrol]
Eukaryotic NOX
  Property (NADPH oxidase activity of the eukaryotic NOX): Inhibitor
SpNox
  Effect on the NADPH oxidase activity of SpNox: inhibitors of SpNox

## c1ccc(Cn2nnc3c(Sc4nc5ccccc5o4)ncnc32)cc1 [VAS2870]
Eukaryotic NOX
  Property (NADPH oxidase activity of the eukaryotic NOX): Inhibitor
